Data: patent US11773077B2, “Compounds containing carbon-carbon linker as GPR120 agonists” (PIRAMAL ENTERPRISES LIMITED, priority 2015, dated 2023)

target: T1, GPR120L (Long Isoform) receptor (Homo sapiens, UniProt Q5NUL3); test: Beta (β) arrestin 2 Interaction Assay (β-galactosidase enzyme fragment complementation); assay type: cell-based; details: β-arrestin recruitment; CHO-K1 cells stably expressing GPR120L, similar procedure for HEK 293 cells; 2 hours incubation
T1 construct: expressed in transfected cells; similar procedure in HEK 293 cells
T1 sequence (Q5NUL3 1-377 isoform Q5NUL3-1): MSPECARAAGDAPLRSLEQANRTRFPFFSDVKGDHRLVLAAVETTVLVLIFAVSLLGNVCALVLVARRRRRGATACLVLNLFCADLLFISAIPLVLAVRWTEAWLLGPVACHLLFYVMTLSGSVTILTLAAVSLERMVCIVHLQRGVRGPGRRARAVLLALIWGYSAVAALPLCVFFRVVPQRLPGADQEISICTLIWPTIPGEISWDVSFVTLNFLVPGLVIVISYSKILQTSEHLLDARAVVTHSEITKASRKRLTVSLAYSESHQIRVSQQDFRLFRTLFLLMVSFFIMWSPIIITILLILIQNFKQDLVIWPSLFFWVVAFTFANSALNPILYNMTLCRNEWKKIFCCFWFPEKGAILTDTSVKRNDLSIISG
Protocol: Beta (β) arrestin 2 Interaction Assay […] was performed using CHO-K1 cells stably expressing the GPR120L (Long Isoform) receptor using β-galactosidase (Beta gal) enzyme fragment complementation assay. The measurement of GPR120 activation upon agonist activation was directly provided by β-arrestin recruitment. One day before the β-arrestin 2 assay, CHO-K1 cells were seeded and incubated overnight at 37° C. in a 5% CO2 humidified atmosphere. Cells were treated with the test compounds in various concentrations ranging from 30 μM to 1 nM and incubated for 2 hours for GPCR (GPR120) activation. Extent of Arrestin recruitment was measured by adding detection reagents for Beta gal complementation assay, and was further incubated for 1 hour. The chemiluminescent signal was detected on Polar Star (BMG Labtech). The dose-response curve was analyzed using Sigma Plot/Graph Pad. The EC50 (concentration of the test compounds where 50% of compounds' maximal activity is observed) values were calculated from the dose-response curve.

| EC50 | SMILES |
| --- | --- |
| 5000 to 10000 nM | Cc1ccc(-c2ccc(F)cc2C#Cc2ccc(CCCC(=O)O)nc2)s1 [Compound 3, 4-(5-((5-Fluoro-2-(5-methylthiophen-2-yl)phenyl)ethynyl)pyridin-2-yl)butanoic acid] |
| 50 to 500 nM | Cc1ccc(-c2ccc(F)cc2CC(F)(F)c2ccc(CCCC(=O)O)cc2)s1 [Compound 5, 4-(4-(1,1-Difluoro-2-(5-fluoro-2-(5-methylthiophen-2-yl)phenyl)ethyl)phenyl)butanoic acid] |
| 500 to 5000 nM | CC1(c2ccc(-c3ccc(F)cc3CC(F)(F)c3ccc(CCCC(=O)O)cc3)s2)CC1 [Compound 6, 4-(4-(1,1-Difluoro-2-(5-fluoro-2-(5-(1-methylcyclopropyl)thiophen-2-yl)phenyl)ethyl)phenyl)butanoic acid] |
| 500 to 5000 nM | N#CC1(c2ccc(-c3ccc(F)cc3C#Cc3ccc(CCCC(=O)O)cc3)s2)CC1 [Compound 11, 4-(4-((2-(5-(1-Cyanocyclopropyl)thiophen-2-yl)-5-fluorophenyl)ethynyl)phenyl)butanoic acid] |
| 50 to 500 nM | O=C(O)CCCc1ccc(CCc2cc(F)ccc2-c2nc3c(s2)CCCC3)cc1 [Compound 12, 4-(4-(5-fluoro-2-(4,5,6,7-tetrahydrobenzo[d]thiazol-2-yl)phenethyl)phenyl)butanoic acid] |
| 50 to 500 nM | CC1(c2ccc(-c3ccc(F)cc3C=Cc3ccc(CCCC(=O)O)cc3)s2)CC1 [Compound 14, 4-(4-(5-fluoro-2-(5-(1-methylcyclopropyl)thiophen-2-yl)styryl)phenyl)butanoic acid] |
| 50 to 500 nM | O=C(O)CCCc1ccc(C#Cc2cc(F)ccc2-c2ccc(C3CC3)s2)cc1 [Compound 18, 4-(4-((2-(5-cyclopropylthiophen-2-yl)-5-fluorophenyl)ethynyl)phenyl)butanoic acid] |
| 50 to 500 nM | COc1ccc(-c2ccc(F)cc2CC(F)(F)c2ccc(CCCC(=O)O)cc2)cn1 [Compound 20, 4-(4-(1,1-difluoro-2-(5-fluoro-2-(6-methoxypyridin-3-yl)phenyl)ethyl)phenyl)butanoic acid] |
